According to patent publication US11167015B2, “Arginine and its use as a T cell modulator” (INSTITUTE FOR RESEARCH IN BIOMEDICINE, priority 2016, dated 2021):

Key:
[1] = system: human naïve CD4+ T cells; assay: T cell proliferation (CellTrace Violet dilution); format: cell-based
Description: FIG. 10. […] (A) Kinetics of T cell proliferation. Human naïve CD4+ T cells were labeled with CellTraceViolet (CTV) and activated in Ctrl medium or in L-Arg medium or in medium supplemented with 3 mM D-arginine or 3 mM L-arginine together with 3 mM L-lysine. Cell divisions were monitored at 48 h and 72 h by flow cytometry. (B) CTV-labeled CD4+ T cells were activated in normal medium or L-Arg medium and the dilution of CTV was measured over time by flow cytometry. n=5 from two donors. (C) 3H-L-arginine uptake by 3 day-activated CD4+ T cells during a 15 minutes pulse. Where indicated, 3 mM L-arginine, D-arginine or L-lysine was added to the culture medium as a competitive uptake inhibitor. n=7 for control, n=9 for L-Arg, n=5 for D-Arg, and n=9 for L-Lys. Bars represent the s.e.m.

[2] = system: human naïve CD4+ T cells; assay: proteome analysis of T cells activated in L-arginine-supplemented medium; format: cell-based
Description: Samples were processed as described by (Hornburg et al., 2014). In brief, cell pellets were washed with PBS and lysed in 4% SDS, 10 mM HEPES (pH 8), 10 mM DTT. Cell pellets were heat-treated at 95° C. for 10 min and sonicated at 4° C. for 15 min (level 5, Bioruptor, Diagenode). Alkylation was performed in the dark for 30 min by adding 55 mM iodoacetamide (IAA). Proteins were precipitated overnight with acetone at −20° C. and resuspended the next day in 8 M Urea, 10 mM Hepes (pH 8). A two-step proteolytic digestion was performed. First, samples were digested at room temperature (RT) with LysC (1:50, w/w) for 3 h. Then, they were diluted 1:5 with 50 mM ammoniumbicarbonate (pH 8) and digested with trypsin (1:50, w/w) at RT overnight. The resulting peptide mixtures were acidified and loaded on C18 StageTips (Rappsilber et al., 2007). […]
Peptides were separated on an EASY-nLC 1000 HPLC system (Thermo Fisher Scientific, Odense, Denmark) coupled online to a Q Exactive mass spectrometer via a nanoelectrospray source (Thermo Fisher Scientific) (Michalski et al., 2011). […] Operational parameters were real-time monitored by the SprayQC software (Scheltema and Mann, 2012). […]
MaxQuant software (version 1.3.10.18) was used to analyze MS raw files (Cox and Mann, 2008). […] Nonlinear retention time alignment of all measured samples was performed in MaxQuant. […]

[3] = system: CD44hi CD4+ TCR transgenic T cells; assay: Mouse experiment with dietary L-arginine: transferred HA TCR transgenic T cells in draining lymph nodes; format: in vivo, BALB/c mice; conditions: daily oral 1.5 mg/g body weight, 15 days after immunization with HA110-119 in CFA
Description: 2×10^5 CD90.1^+ CD4^+ HA TCR-transgenic T cells, on a BALB/c background, were adoptively transferred in Wt CD90.2^4 BALB/c mice. The day after, host mice were immunized s.c. with influenza HA110-119 peptide (purchased from Anaspec) emulsified in CFA. L-Arg (1.5 g/kg body weight) or PBS, as control, was daily orally administrated, starting 1 day before T cell transfer and until the end of the experiment. Draining lymph nodes were analyzed on day 15 post immunization for the presence of transferred transgenic memory CD44^hi CD90.1^+ CD4^+ T cells. Sera were collected 30 min after oral L-arginine administration to mice and L-arginine and L-threonine concentrations in sera were measured on a MassTrak (Waters) instrument at the functional genomics center in Zurich. To determine intracellular L-arginine levels, activated T cells were isolated from draining lymph nodes 60 hours after activation and 30 min after the daily L-arginine administration. Metabolites were extracted with hot 70% ethanol and analyzed by HILIC LC-MS/MS.

N=C(N)NCCC[C@H](N)C(=O)O [L-arginine]
onset of proliferation ([1]; 3 mM in medium): slightly delayed onset | doubling rates once proliferation started ([1]; L-arginine-supplemented medium): comparable to controls | Sirtuin-1 copy numbers ([2]; L-Arg-medium vs normal medium): up-regulates | number of proteins with significantly different expression (out of 7,243) ([2]; L-arginine-supplemented medium): 202 | CD44hi CD4+ TCR transgenic T cells recovered in draining lymph nodes compared to control mice [3]: Three times more
